In patent US20240092756A1, “METHODS AND COMPOSITION FOR KRAS MODIFICATIONS” (2692372 ONTARIO, INC., priority 2020, published 2024):

Key:
[1] = target: T1, KRAS G12C (SEQ ID NO:1 or SEQ ID NO:2) (Homo sapiens, UniProt P01116, G12C); assay: Intact mass analysis (LC-MS) of covalent modification, KRAS G12C; type: binding; set-up: key to KRAS G12C Modification: b: KRAS G12C modified; conditions: intact mass spectrometry; covalent modification of KRAS G12C FL
T1 construct: purchased
Protocol: (§1) The covalent modification of the proteins with the compounds were evaluated using intact mass analysis by liquid chromatography-mass spectrometry instrument (LC-MS/MS).
(§2) The reaction solution (20 μL) was prepared in 96-well plate and contained the protein (2 μM), the compound (100 μM), HEPES buffer (20 mM, pH 8), 2% DMSO, 2% glycerol, and 150 mM NaCl. The reaction was allowed to proceed for 24 h at 25° C. The reaction solution (1 μL) was injected into the LC/MS/MS without any further sample preparation.
(§3) The LC-MS/MS instrument comprises of a Waters G2-XS quadrupole-time of flight (QTof) mass spectrometer and a Waters Acuity I-class Ultra-High Performance Liquid Chromatography (UPLC) system. The I-class UPLC system includes a binary solvent manager (BSM), and an Acquity sample manager (SM). The mobile phase consisted of: A) 0.1% (v/v) formic acid in MilliQ water; B) 0.1% (v/v) formic acid acetonitrile. Gradients were run over 5 min and proceeded as follows: A:B, 85:15, 0.0-0.7 min, 85:15→15:85, 0.7-1.5 min, 10:90, 1.5-4 min, 10:90→85:15, 4-4.5 min, 85:15, 4.5-5 min. The analytical column was a Waters BEH C4 column 1.7 μm (50×1 mm) column with pore sizes of 300 Å. The TOF MS data was collected in positive ion mode (m/z of 400-2000 Da) using MassLynx software (Waters).
(§4) The spectral deconvolution was performed using UNIFI software (Waters). The added mass of the protein upon covalent modification to cysteine residues were specified. Multiple modification of up to 8 cysteine was allowed. All the adducts with signal intensities of <2% of the base peak were ignored. The % modification was calculated as the adduct signal intensity over the total intensities of the protein peaks and the adducts.

KRAS G12C = KRAS G12C (Homo sapiens, UniProt P01116, G12C); assay: SOS1-catalyzed KRAS coupled nucleotide exchange assay (Alpha technology); type: biochemical; set-up: His; key: A: KRAS G12C bound and modulated; conditions: inhibition of SOS1 mediated KRAS nucleotide exchange
Protocol: Method I: The inhibition of the SOS1-catalyzed nucleotide exchange activity of KRAS (e.g., KRAS G12C/C118A) was measured using Alpha (Amplified Luminescent Proximity Homogeneous Assay) technology. 20 nM GDP-bound human KRAS (G12C/C118A) protein was incubated with two-fold serially-diluted test compound or DMSO for 5 minutes at ambient temperature in reaction buffer (25 mM HEPES, pH 7.4; 10 mM MgCl2; 0.01% Triton X-100). For all subsequent steps, DTT was added to the reaction buffer at a final concentration of 1 mM. Next, GTP and SOS-1 were added in DTT-reaction buffer at final concentrations of 1.25 mM or 500 nM, respectively, and incubated at RT for 30 minutes. Finally, c-RAF RBD (50 nM final), Alpha glutathione donor beads (PerkinElmer; 20 μg/mL final), and AlphaLISAnickel chelate acceptor beads (PerkinElmer; 20 μg/mL final), all diluted in DTT-reaction buffer, were added. The reaction mixture was incubated at RT for 5 min, and then the plates were read on an EnVision® Multilabel Reader using the AlphaScreen protocol. Luminescence signal was measured at 570 nm following a 180 ms excitation at 680 nm. Signal intensity corresponded with the association of c-RAF RBD with GTP-bound KRAS G12C/C118A and was normalized to DMSO control.
Method II: Inhibition of the SOS1-catalyzed nucleotide exchange activity of KRAS^G12C was measured using Alpha technology (PerkinElmer). 50 nM GDP-bound human KRAS^G12C protein was incubated with serially-diluted compound or DMSO for 2 hrs at RT in RBD-RAS binding buffer (BPSBioscience). 1 mM GTP and 500 nM SOS-1 were added to the reaction mixture and incubated at RT for 30 min. GST-tagged RBD-cRAF was then added to the reaction mixture at a final concentration of 2.5 nM and incubated at RT for 30 min. Finally, Alpha Glutathione acceptor beads and Nickel chelate donor beads (PerkinElmer) were diluted to 1:500 and 1:250, respectively, and added to the reaction mixture. The final reaction was incubated at RT for 30 min. Plates were read on a TECAN SPARK® Multiplate Reader. The luminescence signal was measured at 615 nm following excitation at 680 nm. Signal intensity was normalized to DMSO control.

[2] = target: KRAS G12C Lite (SEQ ID NO:3) (Homo sapiens, UniProt P01116, C118S/C51S/C80S/G12C/S136P/S39C); assay: Intact mass analysis (LC-MS) of covalent modification, KRAS G12C Lite; type: binding; set-up: key to KRAS Lite Modification: a: KRAS Lite modified; conditions: intact mass spectrometry; covalent modification of KRAS G12C Lite
Protocol: as §1, §2, §3, §4

[3] = system: phospho-ERK1/2 in MIA PaCa-2 cells (express KRAS G12C); assay: ERK1/2 phosphorylation in MIA PaCa-2 cells; type: cell-based, human; set-up: key: X: KRAS G12C bound and modulated in cells
Protocol: MIA PaCa-2 cells were cultured in Dulbecco's Modified Eagle's Medium (Wisent) supplemented with 10% FBS, 2.5% horse serum, and 1% penicillin/streptomycin. Cells were seeded in 6-well plates at 500,000 cells/well and incubated at 37° C., 5% CO2 for 16 hours. Cells were treated with the indicated concentrations of compound or DMSO alone and incubated at 37° C., 5% CO2 for 6 or 24 hours. Conditioned media was discarded, and adherent cells were washed with PBS before they were scraped. Cell suspensions were centrifugated at 2,000 RPM for 5 minutes at 4° C. and supernatants were discarded. Cell pellets were resuspended with 1×RIPA buffer (Millipore) and incubated on ice for 15 minutes. Protein lysates were extracted by centrifugating at 20,000 RPM for 20 minutes at 4° C. Proteins were separated and total KRas protein levels were quantified by Simple Western Immunoassay (ProteinSimple) using the 2-40 kDa Separation Module for Jess according to the manufacturer's protocol, using a protein concentration of 0.5 μg/μl and antibodies targeting KRas (clone #4F3, Sigma) and GAPDH (clone #14C10, Cell Signaling) diluted to 1:10 and 1:1600, respectively, where the latter was used as a loading control. A 3:1 ratio of rabbit to mouse HRP-conjugated secondary antibodies was used for detection. KRas protein levels were quantified relative to GAPDH loading levels and subsequently normalized to the DMSO control. Phosphorylated ERK1/2 levels were quantified by Simple Western Immunoassay (ProteinSimple) using the Protein Normalization Assay Module for Jess according to the manufacturer's protocol using a protein concentration of 0.5 μg/μl and an antibody targeting phosphor-ERK1/2 (clone #D13.14.4E, Cell Signalling) diluted to 1:10. Phosphorylated ERK1/2 levels were normalized to the Jess Protein Normalization Reagent loading control and subsequently to the DMSO control.
MIA PaCa-2 cells were cultured in Dulbecco's Modified Eagle's Medium (Wisent) supplemented with 10% FBS, 2.5% horse serum, and 1% penicillin/streptomycin. Cells were seeded in 96-well plates at a density of 25,000 cells/well and incubated at 37° C., 5% CO2 for 24 hours. The next day, cells were starved in cell culture media containing 1% FBS only at 37° C., 5% CO2 for 16 hours. Following starvation, serially-diluted compounds or DMSO alone were added to cells and incubated at 37° C., 5% CO2 for 1 or 3 hours. Prior to cell lysis, 25 ng/ml human epidermal growth factor (hEGF) (Sigma) was added to the cells and incubated at 37° C., 5% CO2 for 10 minutes. Conditioned media was discarded, and adherent cells lysed and basal ERK1/2 phosphorylation levels were measured using the Phospho-ERK (Thr202/Tyr204) Cellular HTRF kit (Perkin Elmer) according to the manufacturer's protocol. The fluorescent signal of the acceptor antibody at a wavelength of 665 nm was normalized to that of the donor antibody at 620 nm. HTRF ratios were plotted and relative IC50 values were obtained using Prism (GraphPad).

| Compound | KRAS G12C Modification [1] | KRAS-SOS1 Nucleotide Exchange (KRAS G12C) | KRAS Lite Modification [2] | pERK - MIA PaCa-2 - (6 hours, 5 uM) [3] |
| --- | --- | --- | --- | --- |
| Cc1ccnc(C(C)C)c1-n1c(=O)nc(N2CCN(S(=O)(=O)c3c(F)c(F)c(F)c(F)c3OC(F)F)C[C@@H]2C)c2cc(F)c(-c3c(O)cccc3F)nc21 (single isomer, unassigned) [Compound 17A] | b | A | a | X |
| Cc1ccnc(C(C)C)c1-n1c(=O)nc(N2CCN(S(=O)(=O)c3c(F)c(F)c(F)c(F)c3OC(F)F)C[C@@H]2C)c2cc(F)c(-c3c(O)cccc3F)nc21 (single isomer, unassigned) [Compound 18A] | b | A | a | X |
| Cc1ccnc(C(C)C)c1-n1c(=O)nc(N2CCN(S(=O)(=O)c3c(F)c(F)c(F)c(F)c3F)C[C@@H]2C)c2cc(F)c(Cl)nc21 [Compound 2A, 7-chloro-6-fluoro-1-(2-isopropyl-4-methylpyridin-3-yl)-4-((S)-2-methyl-4-((perfluorophenyl)sulfonyl)piperazin-1-yl)pyrido[2,3-d]pyrimidin-2(1H)-one] | b | A | a | – |
| Cc1ccnc(C(C)C)c1-n1c(=O)nc(NS(=O)(=O)c2c(F)c(F)c(F)c(F)c2F)c2cc(F)c(Cl)nc21 [Compound 4A, N-(7-chloro-6-fluoro-1-(2-isopropyl-4-methylpyridin-3-yl)-2-oxo-1,2-dihydropyrido[2,3-d]pyrimidin-4-yl)-2,3,4,5,6-pentafluorobenzenesulfonamide] | – | A | a | X |
| COc1c(F)c(F)c(F)c(F)c1S(=O)(=O)N1CCN(c2nc(=O)n(-c3c(C)ccnc3C(C)C)c3nc(-c4c(O)cccc4F)c(F)cc23)[C@@H](C)C1 [Compound 5A, 6-fluoro-7-(2-fluoro-6-hydroxyphenyl)-1-(2-isopropyl-4-methylpyridin-3-yl)-4-((S)-2-methyl-4-((2,3,4,5-tetrafluoro-6-methoxyphenyl)sulfonyl)piperazin-1-yl)pyrido[2,3-d]pyrimidin-2(1H)-one] | b | A | – | X |
| Cc1ccnc(C(C)C)c1-n1c(=O)nc(N2CCN(S(=O)(=O)c3c(F)c(F)c(F)c(F)c3OC(F)F)C[C@@H]2C)c2cc(F)c(-c3c(O)cccc3F)nc21 [Compound 16A, 4-((S)-4-((2-(difluoromethoxy)-3,4,5,6-tetrafluorophenyl)sulfonyl)-2-methylpiperazin-1-yl)-6-fluoro-7-(2-fluoro-6-hydroxyphenyl)-1-(2-isopropyl-4-methylpyridin-3-yl) pyrido[2,3-d]pyrimidin-2(1H)-one] | b | A | a | – |
| Cc1cccc(C)c1-c1ccc2cc(CNS(=O)(=O)c3c(F)c(F)c(F)c(F)c3F)cnc2c1 [Compound 19A, N-[[7-(2,6-dimethylphenyl)-3-quinolyl]methyl]-2,3,4,5,6-pentafluoro-benzenesulfonamide] | b | – | a | X |
| O=C(COc1ccc(Cl)cc1Cl)NC1CN(S(=O)(=O)c2c(F)c(F)c(F)c(F)c2F)C1 [Compound 50A, 2-(2,4-dichlorophenoxy)-N-(1-((perfluorophenyl)sulfonyl)azetidin-3-yl)acetamide] | b | – | – | – |
| O=C(COc1ccc(Cl)cc1Cl)N1CCN(S(=O)(=O)c2c(F)c(F)c(F)c(F)c2C(F)(F)F)CC1 [Compound 51A, 2-(2,4-dichlorophenoxy)-1-(4-((2,3,4,5-tetrafluoro-6-(trifluoromethyl)phenyl)sulfonyl)piperazin-1-yl)ethan-1-one] | b | – | – | – |
